The values that follow come from patent publication US12116388B2, “Amylin receptor agonists” (Novo Nordisk A/S, priority 2022, dated 2024).

What is called EC50 is the concentration at which the effect is half-maximal.

The target of test [1] is T1, human calcitonin receptor (hCTR) (Homo sapiens, UniProt P30988).
T1 construct: host or cells: BHK (Baby Hamster Kidney), Hollex-1 cell line
T1 sequence (P30988 25-474): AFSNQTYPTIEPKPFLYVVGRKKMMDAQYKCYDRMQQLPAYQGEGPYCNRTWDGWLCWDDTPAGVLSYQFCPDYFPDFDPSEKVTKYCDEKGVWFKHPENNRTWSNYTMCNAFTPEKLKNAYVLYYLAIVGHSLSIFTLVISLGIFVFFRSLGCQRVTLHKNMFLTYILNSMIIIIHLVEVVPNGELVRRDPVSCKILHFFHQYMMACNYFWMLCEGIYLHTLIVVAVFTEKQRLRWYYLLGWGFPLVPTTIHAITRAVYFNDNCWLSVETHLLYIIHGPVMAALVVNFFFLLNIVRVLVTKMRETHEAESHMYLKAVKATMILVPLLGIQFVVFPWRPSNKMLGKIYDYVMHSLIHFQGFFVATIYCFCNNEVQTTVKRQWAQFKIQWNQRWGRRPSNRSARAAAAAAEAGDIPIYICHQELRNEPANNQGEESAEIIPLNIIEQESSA
Briefly: Human calcitonin receptor (hCTR) in vitro potency assay, CRE-luciferase reporter in BHK cells. Type of test: cell-based. The note with it: BHK hCTR/CRE-Luc cells, 3 hours incubation, assay buffer with 1% ovalbumin; read-out: hCalcR potency, EC50. In a few lines:
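Luciferase signal from a CRE reporter served as the cAMP read-out after 3 h, 37 °C exposure to compound. Cells were stably transfected BHK expressing hCTR, and the buffer was phenol-red-free DMEM with 10 mM HEPES and 1% ovalbumin. Compounds were tested as 7-point, 7-fold dilutions, often from about 10 nM.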

In test [2] the target is T2, human amylin receptor (hAMYR3) (Homo sapiens, UniProt O60896+P30988).
T2 construct: host or cells: BHK (Baby Hamster Kidney), Hollex-1 cell line further transfected with RAMP3
Briefly: Human amylin receptor (hAMYR3) in vitro potency assay, CRE-luciferase reporter in BHK cells. Type of test: cell-based. Particulars: BHK hAMYR3/CRE-Luc cells, 3 hours incubation, assay buffer with 1% ovalbumin. Summed up:
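Luminescence from a CRE-driven luciferase reporter reflects cAMP-mediated receptor activation. Peptides were serially diluted (7 concentrations, 7-fold steps, typically starting near 10 nM) in buffer with 1% ovalbumin and applied for 3 h at 37 °C to BHK cells co-expressing calcitonin receptor (a) and RAMP3.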
(In general: Reporter assays use an easily measured gene product as a stand-in for the process of interest.)

Starred links: 1 amine or outer side, 2 acyl side, 3 side chain; linkers in the order of their positions; H or OH if unused. Residues, ends and D or L forms follow the SMILES beside them. Groups on a side chain read outwards from the residue. *: point of attachment. C20 diacid = O=C(O)CCCCCCCCCCCCCCCCCCC(=O)*; C18 diacid = O=C(O)CCCCCCCCCCCCCCCCC(=O)*; γGlu = O=C(O)[C@H](CCC(=O)[*:2])N[*:1]

T2 sequence (O60896 24-148, one chain of several): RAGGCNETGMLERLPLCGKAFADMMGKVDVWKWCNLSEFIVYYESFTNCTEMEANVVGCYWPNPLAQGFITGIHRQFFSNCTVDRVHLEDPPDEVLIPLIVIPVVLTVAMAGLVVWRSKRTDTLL

As for `CC[C@H](C)[C@H](NC(=O)[C@H](C)NC(=O)CNC(=O)[C@H](Cc1ccccc1)NC(=O)[C@@H]1CCCN1C(=O)[C@H](CC(=O)O)NC(=O)[C@H](CO)NC(=O)[C@H](CO)NC(=O)[C@H](Cc1c[nH]cn1)NC(=O)[C@H](Cc1c[nH]cn1)NC(=O)[C@H](CC(C)C)NC(=O)[C@H](Cc1ccccc1)NC(=O)[C@H](CCC(=O)O)NC(=O)[C@H](C)NC(=O)[C@H](CC(C)C)NC(=O)[C@H](CCCNC(=N)N)NC(=O)[C@H](C)NC(=O)[C@@H](NC(=O)[C@H](CCC(N)=O)NC(=O)[C@H](C)NC(=O)[C@@H](NC(=O)[C@H](CO)NC(=O)[C@H](CC(C)C)NC(=O)[C@H](Cc1c[nH]cn1)NC(=O)[C@H](CO)NC(=O)[C@H](C)NC(=O)CC[C@H](NC(=O)CCCCCCCCCCCCCCCCC(=O)O)C(=O)O)[C@@H](C)O)[C@@H](C)O)C(=O)N1CCC[C@H]1C(=O)N[C@@H](CO)C(=O)N[C@@H](CO)C(=O)N[C@H](C(=O)N[C@@H](CC(=O)O)C(=O)N[C@H](C(=O)NCC(=O)N1CCC[C@H]1C(=O)N[C@@H](CC(=O)O)C(=O)N[C@H](C(=O)N[C@@H](Cc1ccc(O)cc1)C(N)=O)[C@@H](C)O)C(C)C)[C@@H](C)O` [Compound 37, N^1-[(4S)-4-carboxy-4-(17-carboxyheptadecanoylamino)butanoyl]-[Ala1,Ser2,His3,Leu4,Ser5,Ala7,Gln8,Ala10,Glu14,His17,Asp21,Pro22,Pro27,Asp31,Pro34,Asp35]-human amylin] ({C18 diacid-γGlu}-ASHLSTAQTARLAEFLHHSSDPFGAIPSSTDVGPDTY-NH2), the EC50 in test [1] was 2.16 pM; in test [2], 1.68 pM.

As to `CC[C@H](C)[C@H](NC(=O)[C@@H]1CCCN1C(=O)CNC(=O)[C@H](Cc1ccccc1)NC(=O)[C@H](CC(N)=O)NC(=O)[C@H](CC(=O)O)NC(=O)[C@H](CO)NC(=O)[C@H](CO)NC(=O)[C@H](Cc1c[nH]cn1)NC(=O)[C@H](Cc1c[nH]cn1)NC(=O)[C@H](CC(C)C)NC(=O)[C@H](Cc1ccccc1)NC(=O)[C@H](CCC(=O)O)NC(=O)[C@H](C)NC(=O)[C@H](CC(C)C)NC(=O)[C@H](CCCNC(=N)N)NC(=O)[C@H](C)NC(=O)[C@@H](NC(=O)[C@H](CCC(N)=O)NC(=O)[C@H](C)NC(=O)[C@@H](NC(=O)[C@H](CO)NC(=O)[C@H](CC(C)C)NC(=O)[C@H](Cc1c[nH]cn1)NC(=O)[C@H](CO)NC(=O)[C@H](C)NC(=O)CC[C@H](NC(=O)CCCCCCCCCCCCCCCCC(=O)O)C(=O)O)[C@@H](C)O)[C@@H](C)O)C(=O)N[C@@H](CC(C)C)C(=O)N1CCC[C@H]1C(=O)N1CCC[C@H]1C(=O)N[C@H](C(=O)N[C@@H](CC(=O)O)C(=O)N[C@H](C(=O)NCC(=O)N[C@@H](CO)C(=O)N[C@@H](CC(N)=O)C(=O)N[C@H](C(=O)N[C@@H](Cc1ccc(O)cc1)C(N)=O)[C@@H](C)O)C(C)C)[C@@H](C)O` [Compound 38, N^1-[(4S)-4-carboxy-4-(17-carboxyheptadecanoylamino)butanoyl]-[Ala1,Ser2,His3,Leu4,Ser5,Ala7,Gln8,Ala10,Glu14,His17,Asp21,Pro25,Pro28,Pro29,Asp31]-human amylin] ({C18 diacid-γGlu}-ASHLSTAQTARLAEFLHHSSDNFGPILPPTDVGSNTY-NH2), the EC50 was 3.15 pM in test [1] and 1.97 pM in test [2].

Consider `CC[C@H](C)[C@H](NC(=O)[C@H](C)NC(=O)CNC(=O)[C@H](Cc1ccccc1)NC(=O)[C@@H]1CCCN1C(=O)[C@H](CC(=O)O)NC(=O)[C@H](CO)NC(=O)[C@H](CO)NC(=O)[C@H](Cc1c[nH]cn1)NC(=O)[C@H](Cc1c[nH]cn1)NC(=O)[C@H](CC(C)C)NC(=O)[C@H](Cc1ccccc1)NC(=O)[C@H](CCC(=O)O)NC(=O)[C@H](C)NC(=O)[C@H](CC(C)C)NC(=O)[C@H](CCCNC(=N)N)NC(=O)[C@H](C)NC(=O)[C@@H](NC(=O)[C@H](CCC(N)=O)NC(=O)[C@H](C)NC(=O)[C@@H](NC(=O)[C@H](CO)NC(=O)[C@H](CC(C)C)NC(=O)[C@H](Cc1c[nH]cn1)NC(=O)[C@H](CO)NC(=O)[C@H](C)NC(=O)CC[C@H](NC(=O)CCCCCCCCCCCCCCCCCCC(=O)O)C(=O)O)[C@@H](C)O)[C@@H](C)O)C(=O)N1CCC[C@H]1C(=O)N[C@@H](CO)C(=O)N[C@@H](CO)C(=O)N[C@H](C(=O)N[C@@H](CC(=O)O)C(=O)N[C@H](C(=O)NCC(=O)N1CCC[C@H]1C(=O)N[C@@H](CC(=O)O)C(=O)N[C@H](C(=O)N1CCC[C@H]1C(N)=O)[C@@H](C)O)C(C)C)[C@@H](C)O` [Compound 39, N^1-[(4S)-4-carboxy-4-(19-carboxynonadecanoylamino)butanoyl]-[Ala1,Ser2,His3,Leu4,Ser5,Ala7,Gln8,Ala10,Glu14,His17,Asp21,Pro22,Pro27,Asp31,Pro34,Asp35,Pro37]-human amylin] ({C20 diacid-γGlu}-ASHLSTAQTARLAEFLHHSSDPFGAIPSSTDVGPDTP-NH2), for which the EC50 in test [1] is 1.41 pM; in test [2], 1.05 pM.

On to `CC[C@H](C)[C@H](NC(=O)[C@H](CCCCNC(=O)CC[C@H](NC(=O)CCCCCCCCCCCCCCCCC(=O)O)C(=O)O)NC(=O)CNC(=O)[C@H](Cc1ccccc1)NC(=O)[C@@H]1CCCN1C(=O)[C@H](CC(=O)O)NC(=O)[C@H](CO)NC(=O)[C@H](CO)NC(=O)[C@H](Cc1c[nH]cn1)NC(=O)[C@H](Cc1c[nH]cn1)NC(=O)[C@H](CC(C)C)NC(=O)[C@H](Cc1ccccc1)NC(=O)[C@H](CCC(=O)O)NC(=O)[C@H](C)NC(=O)[C@H](CC(C)C)NC(=O)[C@H](CCCNC(=N)N)NC(=O)[C@H](C)NC(=O)[C@@H](NC(=O)[C@H](CCC(N)=O)NC(=O)[C@H](C)NC(=O)[C@@H](NC(=O)[C@H](CO)NC(=O)[C@H](CC(C)C)NC(=O)[C@H](Cc1c[nH]cn1)NC(=O)[C@H](CO)NC(=O)[C@H](C)NC(C)=O)[C@@H](C)O)[C@@H](C)O)C(=O)N1CCC[C@H]1C(=O)N[C@@H](CO)C(=O)N[C@@H](CO)C(=O)N[C@H](C(=O)N[C@@H](CC(=O)O)C(=O)N[C@H](C(=O)NCC(=O)N1CCC[C@H]1C(=O)N[C@@H](CC(=O)O)C(=O)N[C@H](C(=O)N1CCC[C@H]1C(N)=O)[C@@H](C)O)C(C)C)[C@@H](C)O` [Compound 40, N^1-acetyl,N{Epsilon-25}-[(4S)-4-carboxy-4-(17-carboxyheptadecanoylamino)butanoyl]-[Ala1,Ser2,His3,Leu4,Ser5,Ala7,Gln8,Ala10,Glu14,His17,Asp21,Pro22,Lys25,Pro27,Asp31,Pro34,Asp35,Pro37]-human amylin] (Ac-ASHLSTAQTARLAEFLHHSSDPFGK([γGlu-C18 diacid])IPSSTDVGPDTP-NH2), for which the figures for the EC50 in test [1] and in test [2] were 1.29 pM and 1.38 pM, respectively.
